In general, IC50 refers to the concentration at which inhibition is half-maximal. Higher therefore signals weaker potency. Broadly, the inhibition is the change of the read-out against control, counted positive when it falls. High values mean a strong effect, low ones a weak effect.

The record followed here is ChEMBL document CHEMBL2311273, “Discovery of potent, selective multidrug and toxin extrusion transporter 1 (MATE1, SLC47A1) inhibitors through prescription drug profiling and computational modeling” (J Med Chem, 2013).

Holding throughout (type): cell-based
The target in series [1] is T1, Multidrug and toxin extrusion protein 1 (Homo sapiens, UniProt Q96FL8).
T1 sequence (Q96FL8 whole entry): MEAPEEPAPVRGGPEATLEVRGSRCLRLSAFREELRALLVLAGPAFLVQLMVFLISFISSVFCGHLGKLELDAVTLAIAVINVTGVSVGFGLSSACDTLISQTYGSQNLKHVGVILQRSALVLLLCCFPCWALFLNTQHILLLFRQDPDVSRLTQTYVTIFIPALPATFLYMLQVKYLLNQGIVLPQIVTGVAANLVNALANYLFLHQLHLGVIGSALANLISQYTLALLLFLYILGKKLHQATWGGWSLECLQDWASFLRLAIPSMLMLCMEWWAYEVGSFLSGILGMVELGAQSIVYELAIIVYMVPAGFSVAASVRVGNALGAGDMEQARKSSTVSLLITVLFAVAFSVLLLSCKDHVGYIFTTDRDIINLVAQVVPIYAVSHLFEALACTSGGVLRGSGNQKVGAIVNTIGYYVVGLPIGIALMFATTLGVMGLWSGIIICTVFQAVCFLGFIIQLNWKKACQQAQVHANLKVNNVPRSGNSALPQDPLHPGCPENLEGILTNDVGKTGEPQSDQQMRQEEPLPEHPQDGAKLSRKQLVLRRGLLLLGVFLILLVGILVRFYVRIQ
As to the kind of experiment: Inhibition of human MATE1-mediated ASP+ uptake expressed in HEK293 cells after 1.5 mins by fluorescence assay.

For series [2], the target named is T2, MATE1 (multidrug and toxin extrusion protein 1) (Homo sapiens, UniProt Q96FL8).
T2 sequence (Q96FL8 whole entry): T1 sequence (Q96FL8 whole entry)
As to the kind of experiment: (§1) Inhibition of human MATE1-mediated ASP+ uptake expressed in HEK293 cells at 20 uM after 1.5 mins by fluorescence assay. As to conditions: HEK293 cells expressing human MATE1, probe ASP+.

Series [3] concerns the target T3, Solute carrier family 22 member 2 (Homo sapiens, UniProt O15244).
T3 sequence (O15244 whole entry): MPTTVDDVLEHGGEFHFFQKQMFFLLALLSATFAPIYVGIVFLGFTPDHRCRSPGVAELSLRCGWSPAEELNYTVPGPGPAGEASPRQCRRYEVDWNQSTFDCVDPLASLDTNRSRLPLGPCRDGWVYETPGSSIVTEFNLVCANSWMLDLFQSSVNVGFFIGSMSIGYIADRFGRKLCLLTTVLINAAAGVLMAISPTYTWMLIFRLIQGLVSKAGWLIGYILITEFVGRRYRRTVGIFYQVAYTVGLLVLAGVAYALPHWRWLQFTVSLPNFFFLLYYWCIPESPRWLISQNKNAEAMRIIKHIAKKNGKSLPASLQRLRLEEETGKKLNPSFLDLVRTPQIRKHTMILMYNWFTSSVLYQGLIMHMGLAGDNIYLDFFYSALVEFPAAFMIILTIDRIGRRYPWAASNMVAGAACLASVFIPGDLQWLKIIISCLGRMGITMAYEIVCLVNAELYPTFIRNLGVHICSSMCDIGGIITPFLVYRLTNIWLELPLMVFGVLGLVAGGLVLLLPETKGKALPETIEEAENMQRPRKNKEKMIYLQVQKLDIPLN
Nature of the series: Inhibition of human OCT2-mediated ASP+ uptake expressed in HEK293 cells after 3 mins by fluorescence assay.

The target in series [4] is T4, Multidrug and toxin extrusion protein 2 (Homo sapiens, UniProt Q86VL8).
T4 sequence (Q86VL8 whole entry): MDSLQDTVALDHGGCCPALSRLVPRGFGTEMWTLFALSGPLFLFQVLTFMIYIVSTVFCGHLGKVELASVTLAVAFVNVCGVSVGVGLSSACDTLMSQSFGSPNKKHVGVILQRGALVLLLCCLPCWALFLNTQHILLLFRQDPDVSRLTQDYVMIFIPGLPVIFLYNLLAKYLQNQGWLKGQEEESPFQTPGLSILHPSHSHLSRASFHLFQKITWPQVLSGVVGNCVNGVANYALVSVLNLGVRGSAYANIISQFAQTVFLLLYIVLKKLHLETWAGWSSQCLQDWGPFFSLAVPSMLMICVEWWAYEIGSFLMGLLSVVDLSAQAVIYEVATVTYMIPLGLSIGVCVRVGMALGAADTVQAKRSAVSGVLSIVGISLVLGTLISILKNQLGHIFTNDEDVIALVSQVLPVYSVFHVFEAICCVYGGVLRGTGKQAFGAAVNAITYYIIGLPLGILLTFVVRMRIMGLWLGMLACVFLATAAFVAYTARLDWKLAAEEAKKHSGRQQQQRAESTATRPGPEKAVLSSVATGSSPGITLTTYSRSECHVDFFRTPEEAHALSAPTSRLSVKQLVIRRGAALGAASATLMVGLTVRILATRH
Nature of the series: Inhibition of human MATE2K-mediated ASP+ uptake expressed in HEK293 cells after 1.5 mins by fluorescence assay.

The target of series [5] is T1, Multidrug and toxin extrusion protein 1. The description is as §1. The settings on record: hek293, […], 20 µM.

The compound `CCCc1nc2c(C)cc(-c3nc4ccccc4n3C)cc2n1Cc1ccc(-c2ccccc2C(=O)O)cc1` returned an IC50 in series [1] of 17.9 µM. Moreover, the inhibition at […], 20 µM in series [2] was 38%.
In series [1], `CNS(=O)(=O)Cc1ccc2[nH]cc(CCN(C)C)c2c1` displayed an IC50 of 6.7 µM. For the same compound, the inhibition at […], 20 µM in series [2] is 7%.
The matching figures for `CCOC(=O)[C@H](CCc1ccccc1)N[C@@H](C)C(=O)N1CCC[C@H]1C(=O)O`: greater than 500 µM and 23%.
The matching figures for `COc1ccc(CCN2CCC(Nc3nc4ccccc4n3Cc3ccc(F)cc3)CC2)cc1` [ASTEMIZOLE]: 26.4 µM and 34%.
In series [2], `Nc1ncn([C@@H]2O[C@H](CO)[C@@H](O)[C@H]2O)c(=O)n1` [AZACITIDINE] returned an inhibition at […], 20 µM of 50%.
`O=C1CC2(CCCC2)CC(=O)N1CCCCN1CCN(c2ncccn2)CC1` [BUSPIRONE]: the figures for the IC50 in series [3] and in series [4] were 12 µM and 46 µM, respectively.
Take `CN(C)C(=O)COC(=O)Cc1ccc(OC(=O)c2ccc(NC(=N)N)cc2)cc1` [CAMOSTAT]: the concentration for half-maximal inhibition (IC50) is 16.5 µM in series [3] and 12.7 µM in series [4]. This compound also yielded an INH in series [5] of 77%.
On to `Cc1cc(C2CCCCC2)n(O)c(=O)c1` [CICLOPIROX], for which, in series [1], the IC50 is greater than 500 µM. The compound also came in with an inhibition at […], 20 µM in series [2] of 52%.
The matching figures for `Clc1cccc(Cl)c1N=C1NCCN1` [CLONIDINE]: 33.3 µM and 1%.
The compound `C[C@]12CCC(=O)C=C1CC[C@@H]1[C@@H]2C(=O)C[C@@]2(C)[C@H]1CC[C@]2(O)C(=O)CO` [CORTISONE] registered an inhibition at […], 20 µM in series [2] of 10%.
As to `[H]/N=C(/N)c1ccc(NCc2nc3cc(C(=O)N(CCC(=O)O)c4ccccn4)ccc3n2C)cc1` [DABIGATRAN], the IC50 in series [1] came out at 8.1 µM; in series [3], 4.7 µM; in series [4] it was 25.3 µM.
`C[C@@H]1C[C@H]2[C@@H]3CCC4=CC(=O)C=C[C@]4(C)[C@@]3(F)[C@@H](O)C[C@]2(C)[C@@]1(O)C(=O)CO` [DEXAMETHASONE] came in with an IC50 in series [1] greater than 500 µM. This compound yielded an inhibition at […], 20 µM in series [2] of 30%.
For `CN1C[C@H](C(=O)N[C@]2(C)O[C@@]3(O)[C@@H]4CCCN4C(=O)[C@H](Cc4ccccc4)N3C2=O)C[C@@H]2c3cccc4[nH]cc(c34)C[C@H]21` [DIHYDROERGOTAMINE], the values for the IC50 in series [1], in series [3] and in series [4] were 2.8 µM, 49.9 µM and 12.6 µM, respectively. This compound also displayed an INH in series [5] of 72%.
Consider `O=c1[nH]c2ccccc2n1CCCN1CCC(n2c(=O)[nH]c3cc(Cl)ccc32)CC1` [DOMPERIDONE], for which the IC50 turned out to be 7.9 µM in series [3] and 14.8 µM in series [4]. For the same compound, the INH in series [5] is 66%.
As to `NC1=NCC2c3ccccc3Cc3ccccc3N12` (stereo not given) [EPINASTINE], the figures for the IC50 in series [1], in series [3] and in series [4] were 1.1 µM, 4.3 µM and 29.8 µM, respectively. The compound also yielded an INH in series [5] of 97%.
In turn, `CC[C@H]1OC(=O)[C@H](C)[C@@H](O[C@H]2C[C@@](C)(OC)[C@@H](O)[C@H](C)O2)[C@H](C)[C@@H](O[C@@H]2O[C@H](C)C[C@H](N(C)C)[C@H]2O)[C@](C)(O)C[C@@H](C)C(=O)[C@H](C)[C@@H](O)[C@]1(C)O` [ERYTHROMYCIN] showed an IC50 in series [1] greater than 500 µM.
As to `C#C[C@]1(O)CC[C@H]2[C@@H]3CCc4cc(O)ccc4[C@H]3CC[C@@]21C` [ETHINYL ESTRADIOL], the figures for the IC50 in series [1], in series [3] and in series [4] were 21.1 µM, 2.2 µM and 20.2 µM, respectively. The same compound returned an INH in series [5] of 60%.
Turning to `CCOC(=O)c1ccc(OC(=O)CCCCCNC(=N)N)cc1` [GABEXATE], the IC50 in series [1] came to 0.5 µM; in series [3] it was 0.9 µM; in series [4] it was 10.8 µM. The compound also gave an inhibition at […], 20 µM in series [2] of 96%.
For the compound `CN1C2CCCC1CC(NC(=O)c1nn(C)c3ccccc13)C2` (stereo not given) [GRANISETRON], the IC50 in series [3] stood at 4.3 µM; in series [4], 311 µM. Further, in series [5], the INH is given as 67%.
As for `COc1ccc2c(c1)c(CC(=O)O)c(C)n2C(=O)c1ccc(Cl)cc1` [INDOMETHACIN], the inhibition at […], 20 µM in series [2] was determined as 6%.
On to `CCCCC1=NC2(CCCC2)C(=O)N1Cc1ccc(-c2ccccc2-c2nnn[nH]2)cc1` [IRBESARTAN], for which the inhibition at […], 20 µM in series [2] was determined as 15%.
Still for that read-out and setting: for `CCCCc1nc(Cl)c(CO)n1Cc1ccc(-c2ccccc2-c2nn[nH]n2)cc1` [LOSARTAN] the value was 12%; for `O=C(O)c1cccnc1` [NIACIN], 54%; for `CCOc1ccc(NC(C)=O)cc1` [PHENACETIN], 53%.
Take `O=c1[nH]c2ccccc2n1C1CCN(CCCC(c2ccc(F)cc2)c2ccc(F)cc2)CC1` [PIMOZIDE]: the values for the IC50 in series [3] and in series [4] were 34.2 µM and greater than 500 µM, respectively.
Compound `COc1cc2nc(N3CCN(C(=O)c4ccco4)CC3)nc(N)c2cc1OC` [PRAZOSIN] had an IC50 in series [4] of 38.4 µM.
As for `C=C[C@H]1C[N@@]2CC[C@H]1C[C@@H]2[C@@H](O)c1ccnc2ccc(OC)cc12` [QUINIDINE], the inhibition at […], 20 µM in series [2] worked out at 28%.
Same read-out and setting: for `CNC(=C[N+](=O)[O-])NCCSCc1ccc(CN(C)C)o1` [RANITIDINE] the value was 29%.
`CC(N)C12CC3CC(CC(C3)C1)C2` (stereo not given) [RIMANTADINE]: the IC50 was determined as 7.3 µM in series [1], 4.4 µM in series [3] and 288 µM in series [4]. In addition, the INH in series [5] is 74%.
`CC(=O)S[C@@H]1CC2=CC(=O)CC[C@]2(C)[C@H]2CC[C@@]3(C)[C@@H](CC[C@@]34CCC(=O)O4)[C@H]12` [SPIRONOLACTONE] returned an IC50 in series [1] of 18.6 µM. This compound also gave an inhibition at […], 20 µM in series [2] of 27%.
In series [1], `c1ccc2[nH]c(-c3cscn3)nc2c1` [THIABENDAZOLE] had an IC50 greater than 500 µM. Further, the inhibition at […], 20 µM in series [2] turned out to be 55%.
With `CC[C@@]1(O)C(=O)OCc2c1cc1n(c2=O)Cc2cc3c(CN(C)C)c(O)ccc3nc2-1` [TOPOTECAN], the IC50 worked out at 1.3 µM in series [1], 61 µM in series [3] and 8.6 µM in series [4]. Moreover, in series [5], the INH came to 50%.
The corresponding values for `COc1cc2c3cc1Oc1cc(ccc1O)C[C@@H]1c4c(cc(OC)c(O)c4Oc4ccc(cc4)C[C@@H]3N(C)CC2)CC[N+]1(C)C` [TUBOCURARINE] are 9.4 µM, 78.8 µM, 55.5 µM and 95%.
For `CC(=O)O[C@H]1C[C@@H]2CC[C@@H]3[C@H](CC[C@@]4(C)[C@H]3C[C@H]([N+]3(C)CCCCC3)[C@@H]4OC(C)=O)[C@@]2(C)C[C@@H]1N1CCCCC1.[Br-]` [VECURONIUM BROMIDE], the IC50 in series [1] came out at 1.9 µM; in series [3] it was 3.5 µM; in series [4] it was 25.2 µM. This compound also displayed an INH in series [5] of 85%.
For `COc1cc(C(=O)NS(=O)(=O)c2ccccc2C)ccc1Cc1cn(C)c2ccc(NC(=O)OC3CCCC3)cc12` [ZAFIRLUKAST], the IC50 in series [3] is 9.7 µM; in series [4], 7.6 µM. In addition, in series [5], the INH came to 52%.
